Columns and labels:
[1] = tested on: normal human melanocytes; assay: Depigmenting activity (reduction of melanin production) in normal human melanocytes in vitro; type: cell-based; conditions: Melanocyte, 72 hours incubation, optical density of melanin, maximum concentration tested 200 μM, read-out: IC50 (concentration at which a 50% decrease in melanin synthesis is achieved)
Experimental: The measurement of the depigmenting activity (reduction of melanin production) of compounds of formula (I) was performed by assaying normal human melanocytes in vitro as follows.
First of all, normal human melanocytes are cultured and dispensed into wells. After 24 hours, the culture medium was replaced with a medium containing compounds of formula (I) to be evaluated. The cells were incubated 72 hours before measurement of the final optical density, which measures the amount of melanin produced by the melanocytes. A dose effect is performed using a wide concentration range of the compounds evaluated. Thus, by making the concentrations and the melanin measurements correspond, it is possible to determine an IC50 in μM: concentration at which a 50% decrease in melanin synthesis is achieved.
Various test campaigns were conducted and the results collated in the table below.

[2] = tested on: coculture of keratinocytes and melanocytes; assay: Coculture experiment: melanogenesis-modulating effect and cytotoxicity; type: cell-based; conditions: for IC50: melanin optical density, read-out: IC50 (concentration for which 50% of the melanin synthesis is inhibited)
Experimental: The melanogenesis-modulating effect of compound 1 was measured according to the method described in patent FR-A-2734825, and also in the article by R. Schmidt, P. Krien and M. Régnier, Anal. Biochem., 235(2), 113-18, 1996. This test is performed on a coculture of keratinocytes and melanocytes.
The following were determined for the test compound: • the cytotoxicity, • the inhibitory activity on melanin synthesis, by estimating the melanin optical density.
The IC50 values (concentration for which 50% of the melanin synthesis is inhibited) were determined.

[3] = tested on: pigmented reconstructed epidermis; assay: Depigmenting activity on pigmented reconstructed epidermis (melanin quantified by image analysis, Fontana Masson); type: cell-based, human; conditions: 300 μM in DMSO, control DMSO, Mann-Whitney test, pValue<0.05
Experimental: Compositions comprising 300 μM of compound 1 in DMSO were applied to samples of pigmented reconstructed epidermis (cf. EP 1 878 790). The control is DMSO.
The melanin was quantified by image analysis on histological slices after staining with Fontana Masson dye. Each sample of coloured epidermis is photographed over its entire length using a camera connected to a microscope. The melanin is thresholded and the number of melanin pixels is measured in each field using automated image analysis software. A non-parametric statistical test is performed in order to determine the significance of the measurements (Mann-Whitney test, see FIG. 1).
The pigmented reconstructed epidermis standard study model was published by: Regnier M, Duval C, Galey J B, Philippe M, Lagrange A, Tuloup R, Schmidt R, Cellular and Molecular Biology, 1999, 45, 7, 969-980: “Keratinocyte-Melanocyte co-cultures and pigmented reconstructed human epidermis: models to study modulation of melanogenesis”.

| Compound | IC50 [1] [µM] | cytotoxicity [2] | IC50 [2] [µM] | depigmenting activity (melanin quantified by image analysis) [3] |
| --- | --- | --- | --- | --- |
| CC1(C)CSSCC(C(=O)NCCO)NC1=O (stereo not shown) [Compound 7′, N-(2-hydroxyethyl)-7,7-dimethyl-6-oxo-1,2,5-dithiazocane-4-carboxamide] | < 0.4 | non-cytotoxic | 1.04 | – |
| COCC(C)OCC(C)OCC(C)OC(=O)C1CSSCC(C)(C)C(=O)N1 (stereo not shown) [Compound 11′, 1-({1-[(1-methoxypropan-2-yl)oxy]propan-2-yl}oxy)propan-2-yl 7,7-dimethyl-6-oxo-1,2,5-dithiazocane-4-carboxylate] | 10.7 | – | – | – |
| CC1(C)CSSC[C@@H](C(=O)O)NC1=O [Compound 1, 7,7-dimethyl-6-oxo-1,2,5-dithiazocane-4-(R)-carboxylic acid] | 62.5 | non-cytotoxic | 9.6 | Significant depigmenting activity |
| CN(C)C(=O)C1CSSCC(C)(C)C(=O)N1 (stereo not shown) [Compound 4′, N,N,7,7-tetramethyl-6-oxo-1,2,5-dithiazocane-4-carboxamide] | 4.23 | – | – | – |
| CC(C)OC(=O)C1CSSCC(C)(C)C(=O)N1 (stereo not shown) [Compound 6′, propan-2-yl 7,7-dimethyl-6-oxo-1,2,5-dithiazocane-4-carboxylate] | 1.9 | non-cytotoxic | 1.57 | – |
| CCOC(=O)C(Cc1ccccc1)NC(=O)C1CSSCC(C)(C)C(=O)N1 (stereo not shown) [Compound 9′, ethyl N-[(7,7-dimethyl-6-oxo-1,2,5-dithiazocan-4-yl)carbonyl]phenylalaninate] | 20.8 | – | – | – |
| COC(=O)[C@@H]1CSSCC(C)(C)C(=O)N1 [Compound 2, methyl 7,7-dimethyl-6-oxo-1,2,5-dithiazocane-4(R)-carboxylate] | 13.6 | non-cytotoxic | 0.74 | – |
| COCCOCCOC(=O)C1CSSCC(C)(C)C(=O)N1 (stereo not shown) [Compound 10′, 2-(2-methoxyethoxy)ethyl 7,7-dimethyl-6-oxo-1,2,5-dithiazocane-4-carboxylate] | 5.26 | non-cytotoxic | 7.62 | – |
| CC1(C)CSSCC(C(=O)NCC(=O)O)NC1=O (stereo not shown) [Compound 12′, N-[(7,7-dimethyl-6-oxo-1,2,5-dithiazocan-4-yl)carbonyl]glycine] | 63.8 | – | – | – |
| CC1(C)CSSCC(C(N)=O)NC1=O (stereo not shown) [Compound 3′, 7,7-dimethyl-6-oxo-1,2,5-dithiazocane-4-carboxamide] | 2.35 | – | – | – |
| CCCCCCCNC(=O)C1CSSCC(C)(C)C(=O)N1 (stereo not shown) [Compound 13′, N-heptyl-7,7-dimethyl-6-oxo-1,2,5-dithiazocane-4-carboxamide] | 0.66 | – | – | – |
| CCOC(=O)C1CSSCC(C)(C)C(=O)N1 (stereo not shown) [Compound 5′, ethyl 7,7-dimethyl-6-oxo-1,2,5-dithiazocane-4-carboxylate] | – | non-cytotoxic | 0.79 | – |
| CCOC(=O)CNC(=O)C1CSSCC(C)(C)C(=O)N1 (stereo not shown) [Compound 8′, ethyl N-[(7,7-dimethyl-6-oxo-1,2,5-dithiazocan-4-yl)carbonyl]glycinate] | 0.87 | non-cytotoxic | 1.23 | – |
| CC1(C)CSSCC(C(=O)OCC(O)CO)NC1=O (stereo not shown) [Compound 18′, 2,3-dihydroxypropyl 7,7-dimethyl-6-oxo-1,2,5-dithiazocane-4-carboxylate] | 9.8 | – | – | – |
